pIC50: −log10 of the molar value.
Biological target: Voltage-dependent calcium channel subunit alpha-2/delta-1 (Homo sapiens, UniProt P54289)
Experiment: [3H]Gabapentin binding in human A710 membrane expressing alpha-2delta subunit of calcium channel
Format: cell membranes

Sequence of Voltage-dependent calcium channel subunit alpha-2/delta-1 (P54289 25-956 limits assumed): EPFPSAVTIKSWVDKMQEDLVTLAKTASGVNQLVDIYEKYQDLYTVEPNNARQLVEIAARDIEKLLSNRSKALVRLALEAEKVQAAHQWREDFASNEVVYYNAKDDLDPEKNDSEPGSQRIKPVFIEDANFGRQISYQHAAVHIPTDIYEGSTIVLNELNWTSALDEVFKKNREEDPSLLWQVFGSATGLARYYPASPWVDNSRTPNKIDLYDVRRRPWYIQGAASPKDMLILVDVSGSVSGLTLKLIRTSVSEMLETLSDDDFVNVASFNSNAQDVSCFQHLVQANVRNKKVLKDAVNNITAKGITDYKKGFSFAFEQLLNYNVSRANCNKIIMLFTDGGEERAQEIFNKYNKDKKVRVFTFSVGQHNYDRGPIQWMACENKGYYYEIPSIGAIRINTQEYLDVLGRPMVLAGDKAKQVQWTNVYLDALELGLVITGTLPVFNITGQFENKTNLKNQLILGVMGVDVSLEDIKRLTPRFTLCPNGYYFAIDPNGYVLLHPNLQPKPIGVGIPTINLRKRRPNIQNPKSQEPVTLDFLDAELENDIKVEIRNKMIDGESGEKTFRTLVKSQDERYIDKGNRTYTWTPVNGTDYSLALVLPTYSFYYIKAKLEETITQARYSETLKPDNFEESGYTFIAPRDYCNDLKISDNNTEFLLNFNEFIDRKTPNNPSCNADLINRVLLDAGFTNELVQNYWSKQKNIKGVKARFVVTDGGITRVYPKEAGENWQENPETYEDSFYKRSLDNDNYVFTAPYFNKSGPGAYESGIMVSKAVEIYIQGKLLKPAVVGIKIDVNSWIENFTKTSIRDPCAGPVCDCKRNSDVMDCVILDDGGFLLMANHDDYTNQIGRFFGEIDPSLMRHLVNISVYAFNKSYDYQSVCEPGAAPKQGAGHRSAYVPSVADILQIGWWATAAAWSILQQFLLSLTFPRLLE
Sequence of Voltage-dependent calcium channel subunit alpha-2/delta-1 (P54289 957-1103 limits assumed): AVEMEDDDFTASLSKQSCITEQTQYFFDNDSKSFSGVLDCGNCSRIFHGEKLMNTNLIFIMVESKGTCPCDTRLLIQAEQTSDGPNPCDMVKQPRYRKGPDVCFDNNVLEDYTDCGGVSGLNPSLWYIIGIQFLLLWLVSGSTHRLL

pIC50 | Structure (SMILES)
< 5.52 | CCOc1ccc(-n2c(C)c3c(C)nnc(N4CC(C)OC(C)C4)c3c2C)cc1 (stereo not drawn)
7.08 | CCOc1ccc(-n2c(C)c3c(C)nnc(N4C[C@@H]5CCc6ccccc6[C@@H]5C4)c3c2C)cc1
7.19 | CCOc1ccc(-n2c(C)c3c(C)nnc(NCc4cnn(CC)c4)c3c2C)cc1
6.92 | CCOc1ccc(-n2c(C)c3c(C)nnc(NCc4cccnc4)c3c2C)cc1
7.49 | CCOc1ccc(-n2c(C)c3c(C)nnc(NCc4ccc5c(n4)NCCC5)c3c2C)cc1
5.77 | CCOc1ccc(-n2c(C)c3c(C)nnc(N4CCOCC4)c3c2C)cc1
7.27 | CCOc1ccc(-n2c(C)c3c(C)nnc(NC4CCc5ccccc54)c3c2C)cc1 (stereo not drawn)
7.20 | CCOc1ccc(-n2c(C)c3c(C)nnc(NCc4cccc5cccnc45)c3c2C)cc1
7.30 | CCOc1ccc(-n2c(C)c3c(C)nnc(NCC4CCCO4)c3c2C)cc1 (stereo not drawn)
6.15 | CCOc1ccc(-n2c(C)c3c(C)nnc(N4CC(C)CC(C)C4)c3c2C)cc1 (stereo not drawn)
6.46 | CCOc1ccc(-n2c(C)c3c(C)nnc(Nc4ccc5[nH]nnc5c4)c3c2C)cc1
6.74 | CCOc1ccc(-n2c(C)c3c(C)nnc(N4CCCC4)c3c2C)cc1
6.15 | CCOc1ccc(-n2c(C)c3c(C)nnc(NCc4ccc(OC)cc4)c3c2C)cc1
7.08 | CCOc1ccc(-n2c(C)c3c(C)nnc(NCc4ccncc4)c3c2C)cc1
7.16 | CCOc1ccc(-n2c(C)c3c(C)nnc(NCc4cnn(C)c4)c3c2C)cc1
7.43 | CCOc1ccc(-n2c(C)c3c(C)nnc(NCc4cccc(Cl)c4)c3c2C)cc1
7.12 | CCOc1ccc(-n2c(C)c3c(C)nnc(NCc4ccccc4OC)c3c2C)cc1
6.70 | CCOc1ccc(-n2c(C)c3c(C)nnc(Nc4ccc5c(c4)CCC5)c3c2C)cc1
6.43 | CCOc1ccc(-n2c(C)c3c(C)nnc(N4CCC(C)CC4)c3c2C)cc1

pIC50 | Structure (SMILES)
6.79 | CCOc1ccc(-n2c(C)c3c(C)nnc(NC4CCCc5ccccc54)c3c2C)cc1 (stereo not drawn)
7.19 | CCOc1ccc(-n2c(C)c3c(C)nnc(NCc4ccc(Cl)cc4)c3c2C)cc1
6.68 | CCOc1ccc(-n2c(C)c3c(C)nnc(Nc4ccc5c(c4)OCO5)c3c2C)cc1
7.52 | CCOc1ccc(-n2c(C)c3c(C)nnc(Nc4ccc5[nH]ccc5c4)c3c2C)cc1
7.74 | CCOc1ccc(-n2c(C)c3c(C)nnc(NCc4cccc(F)c4)c3c2C)cc1
7.08 | CCOc1ccc(-n2c(C)c3c(C)nnc(NCC(C)CC)c3c2C)cc1 (stereo not drawn)
7.44 | CCOc1ccc(-n2c(C)c3c(C)nnc(Nc4ccc5[nH]ncc5c4)c3c2C)cc1
7.17 | CCOc1ccc(-n2c(C)c3c(C)nnc(NCc4n[nH]cc4C4CC4)c3c2C)cc1
5.53 | CCOc1ccc(-n2c(C)c3c(C)nnc(N4CCN(C)CC4)c3c2C)cc1
7.17 | CCOc1ccc(-n2c(C)c3c(C)nnc(NC(C)C)c3c2C)cc1
7.03 | CCOc1ccc(-n2c(C)c3c(C)nnc(NCc4ccc(F)cc4)c3c2C)cc1
6.87 | CCOc1ccc(-n2c(C)c3c(C)nnc(N4CCC5=C(C4)NC4C=CC=CC54)c3c2C)cc1 (stereo not drawn)
6.82 | CCOc1ccc(-n2c(C)c3c(C)nnc(N4CCC(c5ccccc5)(c5ccccc5)C4)c3c2C)cc1
7.21 | CCCCNc1nnc(C)c2c(C)n(-c3ccc(OCC)cc3)c(C)c12
7.15 | CCOc1ccc(-n2c(C)c3c(C)nnc(NCc4cccc5[nH]ccc45)c3c2C)cc1
< 5.52 | CCOc1ccc(-n2c(C)c3c(C)nnc(NCc4ccccn4)c3c2C)cc1
6.84 | CCOc1ccc(-n2c(C)c3c(C)nnc(N4CCC(NC(C)=O)C4)c3c2C)cc1 (stereo not drawn)
6.62 | CCOc1ccc(-n2c(C)c3c(C)nnc(NCc4cccc(OC)c4)c3c2C)cc1
6.53 | CCOc1ccc(-n2c(C)c3c(C)nnc(NC(C)CC(C)C)c3c2C)cc1 (stereo not drawn)

From ChEMBL document CHEMBL1149422, “Expedited SAR study of high-affinity ligands to the alpha(2)delta subunit of voltage-gated calcium channels: Generation of a focused library using a solution-phase Sn2Ar coupling methodology” (Bioorg Med Chem Lett, 2006)
